Key:
[1] = molar enthalpy of vaporization or sublimation; conditions: 341.73 K; Liquid; Static calorimetry
[2] = molar heat capacity at constant pressure; conditions: 101.33 kPa, Small sample (50 mg) DSC
[3] = Crystal
[4] = Molar enthalpy of transition or fusion; conditions: Crystal; DSC

CCCCC(=O)c1ccc(O)cc1 [1-(4-hydroxyphenyl)-1-pentanone]
Conditions	Molar enthalpy of transition or fusion [kcal/mol]	molar enthalpy [kcal/mol]
[1]	–	22.96
[4]	6.15	–

[2]
Conditions	molar heat capacity at constant pressure [J/K/mol]
288.67 K, Crystal	235
288.92 K, Crystal	235.9
289.17 K, Crystal	235.2
289.42 K, Crystal	236.4
289.67 K, Crystal	236
289.92 K, Crystal	235.3
290.17 K, Crystal	236.5
290.42 K, Crystal	236.3
290.68 K, Crystal	238
290.93 K, Crystal	236.4
291.18 K, Crystal	236.8
291.43 K, Crystal	238
291.68 K, Crystal	237.8
291.93 K, Crystal	236.7
292.18 K, Crystal	237.4
292.43 K, Crystal	238.5
292.68 K, Crystal	239
292.93 K, Crystal	239.6
293.18 K, Crystal	239.6
293.43 K, Crystal	240
293.68 K, Crystal	240.4
293.93 K, Crystal	239.8
294.18 K, Crystal	239.1
294.44 K, Crystal	239.1
294.69 K, Crystal	240.8
294.94 K, Crystal	240.4
295.19 K, Crystal	239.8
295.44 K, Crystal	240.5
295.69 K, Crystal	241.6
295.94 K, Crystal	241.1
296.19 K, Crystal	240.8
296.44 K, Crystal	242.1
296.69 K, Crystal	241.7
296.94 K, Crystal	241.2
297.19 K, Crystal	241.5
297.44 K, Crystal	242.2
297.69 K, Crystal	241.6
297.94 K, Crystal	242.5
298.19 K, Crystal	242.7
298.44 K, Crystal	242.8
298.69 K, Crystal	241.8
298.94 K, Crystal	242.3
299.19 K, Crystal	242.3
299.44 K, Crystal	242.2
299.69 K, Crystal	242.9
299.94 K, Crystal	244.1
300.19 K, Crystal	244.9
300.44 K, Crystal	244.3
300.69 K, Crystal	244.4
300.94 K, Crystal	244.7
301.19 K, Crystal	244.5
301.44 K, Crystal	243.4
301.69 K, Crystal	244.2
301.94 K, Crystal	244.9
302.19 K, Crystal	245.3
302.44 K, Crystal	245.1
302.69 K, Crystal	244.8
302.94 K, Crystal	245.6
303.19 K, Crystal	246.4
303.44 K, Crystal	246.5
303.69 K, Crystal	247
303.94 K, Crystal	247.4
304.19 K, Crystal	247.3
304.44 K, Crystal	247.5
304.69 K, Crystal	246.8
304.94 K, Crystal	246.8
305.19 K, Crystal	247.1
305.44 K, Crystal	248.1
305.69 K, Crystal	247.8
305.94 K, Crystal	247.5
306.19 K, Crystal	247.7
306.44 K, Crystal	248.9
306.69 K, Crystal	248.8
306.94 K, Crystal	249.6
307.19 K, Crystal	250.4
307.44 K, Crystal	250.1
307.69 K, Crystal	250.1
307.94 K, Crystal	249.4
308.19 K, Crystal	249.7
308.44 K, Crystal	250.1
308.69 K, Crystal	249.7
308.94 K, Crystal	250.3
309.19 K, Crystal	250.8
309.44 K, Crystal	251.7
309.69 K, Crystal	252.9
309.94 K, Crystal	251.9
310.19 K, Crystal	253.2
310.44 K, Crystal	253.8
310.69 K, Crystal	253.1
310.94 K, Crystal	253.2
311.19 K, Crystal	252.6
311.44 K, Crystal	252.4
311.69 K, Crystal	253.1
311.94 K, Crystal	252.2
312.19 K, Crystal	252.8
312.44 K, Crystal	252.4
312.69 K, Crystal	253.6
312.94 K, Crystal	254
313.19 K, Crystal	253.3
313.44 K, Crystal	254.6
313.69 K, Crystal	255.2
313.94 K, Crystal	255
314.19 K, Crystal	255.4
314.44 K, Crystal	256.5
314.69 K, Crystal	256.9
314.94 K, Crystal	256.1
315.19 K, Crystal	256
315.44 K, Crystal	255.8
315.69 K, Crystal	255.8
315.94 K, Crystal	256
316.19 K, Crystal	256.4
316.44 K, Crystal	256.4
316.69 K, Crystal	257.2
316.94 K, Crystal	258
317.19 K, Crystal	257.2
317.44 K, Crystal	257.6
317.69 K, Crystal	257.8
317.94 K, Crystal	257.4
318.19 K, Crystal	257
318.44 K, Crystal	258.3
318.69 K, Crystal	258.9
318.94 K, Crystal	259.1
319.19 K, Crystal	260.1
319.44 K, Crystal	259.4
319.69 K, Crystal	260.1
319.94 K, Crystal	259.7
320.19 K, Crystal	259.7
320.44 K, Crystal	260.3
320.69 K, Crystal	260.6
320.94 K, Crystal	261.2
321.19 K, Crystal	261.4
321.44 K, Crystal	260.7
321.69 K, Crystal	260.9
321.94 K, Crystal	260.9
322.19 K, Crystal	261.4
322.44 K, Crystal	262.1
322.69 K, Crystal	262.7
322.94 K, Crystal	262.6
323.19 K, Crystal	263.3
323.44 K, Crystal	263.3
323.69 K, Crystal	262.8
323.94 K, Crystal	263
324.19 K, Crystal	264.1
324.44 K, Crystal	264.2
324.69 K, Crystal	264.3
324.94 K, Crystal	265.1
325.19 K, Crystal	265.2
325.44 K, Crystal	265.1
325.69 K, Crystal	265.8
325.94 K, Crystal	266.1
326.19 K, Crystal	266.1
326.44 K, Crystal	267.6
326.69 K, Crystal	267.8
326.94 K, Crystal	267.5
327.19 K, Crystal	267.3
327.44 K, Crystal	267.7
327.69 K, Crystal	268.3
327.94 K, Crystal	268.4
328.19 K, Crystal	268.9
328.44 K, Crystal	269.8
328.69 K, Crystal	269.8
328.94 K, Crystal	270.3
329.19 K, Crystal	270.3
329.44 K, Crystal	272
329.69 K, Crystal	273.2
329.94 K, Crystal	272.8
330.19 K, Crystal	273.6
330.44 K, Crystal	273.2
330.69 K, Crystal	275.7
330.94 K, Crystal	275.7
331.19 K, Crystal	277.6
331.44 K, Crystal	277.9
331.69 K, Crystal	278.6
331.94 K, Crystal	280.4
332.19 K, Crystal	281.8
332.44 K, Crystal	283.8
332.69 K, Crystal	285.5
332.94 K, Crystal	287.6
333.19 K, Crystal	291.7
333.44 K, Crystal	295.7
340.69 K, Liquid	393.2
340.94 K, Liquid	373.9
341.19 K, Liquid	368.2
341.44 K, Liquid	365.9
341.69 K, Liquid	367
341.94 K, Liquid	367.1
342.19 K, Liquid	366.1
342.44 K, Liquid	366.4
342.69 K, Liquid	368.5
342.94 K, Liquid	384.8
343.19 K, Liquid	386
343.44 K, Liquid	368.7
343.69 K, Liquid	364.2
343.94 K, Liquid	364.3
344.19 K, Liquid	364.4
344.44 K, Liquid	365
344.69 K, Liquid	366.8
344.94 K, Liquid	368.6
345.19 K, Liquid	369.5
345.44 K, Liquid	369.4
345.69 K, Liquid	370.7
345.94 K, Liquid	371
346.19 K, Liquid	371
346.44 K, Liquid	370.7
346.69 K, Liquid	371
346.94 K, Liquid	372.4
347.19 K, Liquid	373.1
347.44 K, Liquid	372.8
347.69 K, Liquid	373.7
347.94 K, Liquid	374
348.19 K, Liquid	373.1
348.44 K, Liquid	372.9
348.69 K, Liquid	371.8
348.94 K, Liquid	372
349.19 K, Liquid	373
349.44 K, Liquid	374.4
349.69 K, Liquid	374.8
349.94 K, Liquid	374
350.19 K, Liquid	374.1
350.44 K, Liquid	375.3
350.69 K, Liquid	374.9
350.94 K, Liquid	373.9
351.19 K, Liquid	375
351.44 K, Liquid	376.6
351.68 K, Liquid	375.6
351.93 K, Liquid	376.3

Conditions	mass density [kg/m3]
[3], 298 K, 101.33 kPa, X-ray diffraction	1204.5

Conditions	Normal melting temperature [°C]
[3], DTA	61.1
